{
  "source": "patent US12582784B2",
  "about": "“Dry powder inhalation system” (MannKind Corporation, priority 2008, dated 2026)",
  "key": {"[1]": {"experiment": "Baseline-corrected glucose infusion rate (GIR) evaluation under hyperinsulinemic-euglycemic clamp", "type": "in vivo, human (subjects with type 1 diabetes mellitus)", "settings": "10 IU sc RAA", "method": "A phase I, open-label, single-dose, repeat administration study in subjects with type 1 diabetes (T1DM) was conducted to assess the pharmacokinetic profile or PK of 30 U of insulin-FDKP dosed as a single 30 U cartridge and compared to two 15 U cartridges administered with the present inhalation system. A 10 U subcutaneous injection of the rapid acting insulin analogue (RAA, HUMALOG® (Eli Lilly and Company, Indianapolis, IN)) was also tested. Subjects (age: 19-61 yrs) were randomized to 1 of 6 sequences. Fasted subjects received insulin-FDKP or RAA 4 to 6 hrs after initiating a hyperinsulinemic-euglycemic clamp. Randomization determined the order of insulin-FDKP dosing (first 2 treatment (tx) visits), and the location of the RAA injection (abdomen, arm or leg; 3rd tx visit). After dosing blood samples were taken and analyzed for insulin, insulin lispro and fumaryl diketopiperazine (FDKP (insulin-FDKP tx only)). When studying insulin-FDKP, the basal insulin infusion was performed with HUMALOG®, and when studying HUMALOG®, regular human insulin was used. The analytical methodologies enabled the independent measurement of each insulin tested.\nThis study also evaluated the effects of the dosages administered and the glucose infusion rate (GIR) requirements of the patients in the study. FIG. 19 illustrates the results of the GIR evaluation. […]"}, "[2]": {"set-up": "species or system human (subjects with type 1 diabetes mellitus)", "settings": "human, in vivo, sc", "method": "The study was conducted in subjects with type 1 diabetes mellitus. This study was conducted to determine if a formulation for pulmonary delivery comprising insulin and a diketopiperazine in the formulation, 1) could be delivered consistently using different dosage strengths and 2) if linearity of dosing could be achieved with proportional doses, given that interchangeability of dosage strengths can be important for patient safety. […] Therefore, an important goal in the development of the pulmonary delivery system with a formulation comprising insulin and FDKP (insulin-FDKP) was to achieve dose linearity across the therapeutic dose range.\nIn the study, comparisons of insulin exposure following inhalation of two 15 U cartridges of an insulin inhalation powder to one 30 U cartridge of insulin inhalation powder were made. In addition, insulin bioavailability from a 30 U cartridge of insulin-FDKP inhalation powder was calculated, compared to a 10-IU subcutaneous (sc) injection of insulin lispro (rapid acting analogue [RAA]).\nA phase I, open-label, single-dose, repeat administration study in subjects with type 1 diabetes (T1DM) was conducted to assess the pharmacokinetic profile or PK of 30 U of insulin-FDKP dosed as a single 30 U cartridge and compared to two 15 U cartridges administered with the present inhalation system. […]"}},
  "data": [
    {"substance": "insulin lispro [Humalog]", "values": [
      {"measurement": "time after administration at which GIR peaked", "setting": "[1]", "value": "approximately 150 minutes"},
      {"measurement": "time at which GIR returned toward baseline", "setting": "[1]", "value": "~300", "unit": "min"},
      {"measurement": "Insulin PK parameters tmax", "setting": "[2]", "value": 1, "unit": "h"}
    ]}
  ]
}
